The data set concerns CCRIS mutagenicity, Ames/micronucleus/aberration tests. In words: CCRIS mutagenicity studies.
Where [1] appears, read: Test System: AMES SALMONELLA TYPHIMURIUM, Strain/Indicator: TA98, Metabolic Activation: HAMSTER, LIVER, S-9, AROCLOR 1254 (10%), Method: PREINCUBATION
The mark [2] stands for this setting: Test System: AMES SALMONELLA TYPHIMURIUM, Strain/Indicator: TA98, Metabolic Activation: NONE, Method: PREINCUBATION
[3] abbreviates: Test System: AMES SALMONELLA TYPHIMURIUM, Strain/Indicator: TA98, Metabolic Activation: RAT, LIVER, S-9, AROCLOR 1254 (10%), Method: PREINCUBATION
Setting [4] is: Test System: AMES SALMONELLA TYPHIMURIUM, Strain/Indicator: TA100, Metabolic Activation: HAMSTER, LIVER, S-9, AROCLOR 1254 (10%), Method: PREINCUBATION
[5] abbreviates: Test System: AMES SALMONELLA TYPHIMURIUM, Strain/Indicator: TA100, Metabolic Activation: NONE, Method: PREINCUBATION
Where [6] appears, read: Test System: AMES SALMONELLA TYPHIMURIUM, Strain/Indicator: TA100, Metabolic Activation: RAT, LIVER, S-9, AROCLOR 1254 (10%), Method: PREINCUBATION
Where [7] appears, read: Test System: AMES SALMONELLA TYPHIMURIUM, Strain/Indicator: TA1535, Metabolic Activation: HAMSTER, LIVER, S-9, AROCLOR 1254 (10%), Method: PREINCUBATION
Where [8] appears, read: Test System: AMES SALMONELLA TYPHIMURIUM, Strain/Indicator: TA1535, Metabolic Activation: NONE, Method: PREINCUBATION
Setting [9] is: Test System: AMES SALMONELLA TYPHIMURIUM, Strain/Indicator: TA1535, Metabolic Activation: RAT, LIVER, S-9, AROCLOR 1254 (10%), Method: PREINCUBATION
[10] abbreviates: Test System: AMES SALMONELLA TYPHIMURIUM, Strain/Indicator: TA1537, Metabolic Activation: HAMSTER, LIVER, S-9, AROCLOR 1254 (10%), Method: PREINCUBATION
Where [11] appears, read: Test System: AMES SALMONELLA TYPHIMURIUM, Strain/Indicator: TA1537, Metabolic Activation: NONE, Method: PREINCUBATION
Setting [12] is: Test System: AMES SALMONELLA TYPHIMURIUM, Strain/Indicator: TA1537, Metabolic Activation: RAT, LIVER, S-9, AROCLOR 1254 (10%), Method: PREINCUBATION
[13] abbreviates: Test System: AMES SALMONELLA TYPHIMURIUM, Strain/Indicator: TA98, Metabolic Activation: NONE, Method: STANDARD PLATE.
The mark [14] stands for this setting: Test System: AMES SALMONELLA TYPHIMURIUM, Strain/Indicator: TA98, Metabolic Activation: RAT, LIVER, S-9, KANECHLOR 500, Method: PREINCUBATION
Setting [15] is: Test System: AMES SALMONELLA TYPHIMURIUM, Strain/Indicator: TA100, Metabolic Activation: HAMSTER, LIVER, S-9, AROCLOR 1254, Method: PREINCUBATION
[16] abbreviates: Test System: AMES SALMONELLA TYPHIMURIUM, Strain/Indicator: TA100, Metabolic Activation: RAT, LIVER, S-9, AROCLOR 1254, Method: STANDARD PLATE.
[17] abbreviates: Test System: AMES SALMONELLA TYPHIMURIUM, Strain/Indicator: TA100, Metabolic Activation: NONE, Method: STANDARD PLATE.

Among the data in PubChem BioAssay AID1259407 (Chemical Carcinogenesis Research Information System (CCRIS), 2018) are mutagenic call values, retold here.

Active and inactive are the calls of the source. No rule for the calls is given here.

As for `O=S1(=O)CC=CC1`, the mutagenic call was “inactive; negative” (End Point: IN VITRO CHROMOSOMAL ABERRATIONS, Test System: CHO-LB CELLS, Metabolic Activation: NONE); “inactive; negative” (End Point: IN VITRO CHROMOSOMAL ABERRATIONS, Test System: CHO-LB CELLS, Metabolic Activation: RAT, LIVER, S-9, AROCLOR 1254); “inactive; negative” under setting [1]; “inactive; negative” under setting [2]; “inactive; negative” under setting [3]; “inactive; negative” under setting [4]. Besides, the mutagenic call runs as follows: under setting [5], “inactive; negative”; under setting [6], “inactive; negative”; under setting [7], “inactive; negative”; under setting [8], “inactive; negative”; under setting [9], “inactive; negative”; under setting [10], “inactive; negative”. In addition, the mutagenic call was “inactive; negative” under setting [11] and “inactive; negative” under setting [12].
With `O=C(O)c1ccc([N+](=O)[O-])cc1`, the mutagenic call by setting is: under setting [1], “inactive; negative”; under setting [13], “active; positive”; under setting [3], “inactive; negative”; under setting [14], “inactive; negative”; under setting [4], “active; positive”; (Test System: AMES SALMONELLA TYPHIMURIUM, Strain/Indicator: TA100, Metabolic Activation: HAMSTER, LIVER, S-9, AROCLOR 1254, FLAVIN MONONUCLEOTIDE, Method: PREINCUBATION) “active; positive”. Moreover, the mutagenic call under setting [15] is “active; positive”; the mutagenic call under setting [6] is “active; positive”; the mutagenic call (Test System: AMES SALMONELLA TYPHIMURIUM, Strain/Indicator: TA100, Metabolic Activation: RAT, LIVER, S-9, AROCLOR 1254, FLAVIN MONONUCLEOTIDE, Method: PREINCUBATION) was “active; positive”; the mutagenic call under setting [16] is “inactive; negative”; the mutagenic call (Test System: AMES SALMONELLA TYPHIMURIUM, Strain/Indicator: TA100, Metabolic Activation: RAT, LIVER, S-9, KANECHLOR 500, Method: PREINCUBATION) was “active; positive”; the mutagenic call under setting [7] is “inactive; negative”. In addition, the mutagenic call was “inactive; negative” under setting [8]; “inactive; negative” under setting [9]; “inactive; negative” under setting [10]; “inactive; negative” under setting [11]; “inactive; negative” under setting [12]; “active; positive” (Test System: AMES SALMONELLA TYPHIMURIUM, Strain/Indicator: TA1538, Metabolic Activation: NONE, Method: PREINCUBATION).
Regarding `Nc1ccc(-c2ccc([N+](=O)[O-])cc2N)c([N+](=O)[O-])c1`, the mutagenic call runs as follows: under setting [2], “active; positive”; under setting [14], “active; positive”.
For the compound `O=C(CBr)NCc1ccccc1`, the mutagenic call is, setting by setting: (Test System: AMES SALMONELLA TYPHIMURIUM, Strain/Indicator: TA100, Metabolic Activation: MOUSE, LIVER, S-9, AROCLOR 1254, Method: STANDARD PLATE) “active; positive”; under setting [17], “inactive; negative”.
Take `CC1CNCC(C)O1` (stereo unspecified): the mutagenic call was “inactive; negative” (Test System: AMES SALMONELLA TYPHIMURIUM, Strain/Indicator: TA98, Metabolic Activation: HAMSTER, LIVER, S-9, AROCLOR 1254, Method: PREINCUBATION); “inactive; negative” under setting [2]; “inactive; negative” (Test System: AMES SALMONELLA TYPHIMURIUM, Strain/Indicator: TA98, Metabolic Activation: RAT, LIVER, S-9, AROCLOR 1254, Method: PREINCUBATION); “inactive; negative” under setting [15]; “inactive; negative” under setting [5]; “inactive; negative” (Test System: AMES SALMONELLA TYPHIMURIUM, Strain/Indicator: TA100, Metabolic Activation: RAT, LIVER, S-9, AROCLOR 1254, Method: PREINCUBATION). Besides, the mutagenic call is, setting by setting: (Test System: AMES SALMONELLA TYPHIMURIUM, Strain/Indicator: TA1537, Metabolic Activation: HAMSTER, LIVER, S-9, AROCLOR 1254, Method: PREINCUBATION) “inactive; negative”; under setting [11], “inactive; negative”; (Test System: AMES SALMONELLA TYPHIMURIUM, Strain/Indicator: TA1537, Metabolic Activation: RAT, LIVER, S-9, AROCLOR 1254, Method: PREINCUBATION) “inactive; negative”.
`C=CCc1cc(OC)c(OC)c(OC)c1`: where the note is “Test System: UDS RAT HEPATOCYTES, Strain/Indicator: THY INCORP, Metabolic Activation: NONE, Method: LIQUID SCINTILLATION COUNTING”, the mutagenic call is “active; positive”.
For the compound `CSc1ccc(Cl)cc1`, the mutagenic call by setting is: under setting [13], “inactive; negative”; (Test System: AMES SALMONELLA TYPHIMURIUM, Strain/Indicator: TA98, Metabolic Activation: RAT, LIVER, S-9, AROCLOR 1254, Method: STANDARD PLATE) “inactive; negative”; under setting [17], “inactive; negative”; under setting [16], “inactive; negative”; (Test System: AMES SALMONELLA TYPHIMURIUM, Strain/Indicator: TA1535, Metabolic Activation: NONE, Method: STANDARD PLATE) “inactive; negative”; (Test System: AMES SALMONELLA TYPHIMURIUM, Strain/Indicator: TA1535, Metabolic Activation: RAT, LIVER, S-9, AROCLOR 1254, Method: STANDARD PLATE) “inactive; negative”. Moreover, the mutagenic call reads like this: (Test System: AMES SALMONELLA TYPHIMURIUM, Strain/Indicator: TA1537, Metabolic Activation: NONE, Method: STANDARD PLATE) “inactive; negative”; (Test System: AMES SALMONELLA TYPHIMURIUM, Strain/Indicator: TA1537, Metabolic Activation: RAT, LIVER, S-9, AROCLOR 1254, Method: STANDARD PLATE) “inactive; negative”; (Test System: AMES SALMONELLA TYPHIMURIUM, Strain/Indicator: TA1538, Metabolic Activation: NONE, Method: STANDARD PLATE) “inactive; negative”; (Test System: AMES SALMONELLA TYPHIMURIUM, Strain/Indicator: TA1538, Metabolic Activation: RAT, LIVER, S-9, AROCLOR 1254, Method: STANDARD PLATE) “inactive; negative”.
